Data from patent US9005922B2, “Sensor chip for screening topoisomerase inhibitor and screening method thereof” (Taipei Medical University, priority 2010, dated 2015).

Tests used:
[1] = target: T1, recombinant human topoisomerase I (hTop I) (Homo sapiens, UniProt P11387); assay: Gel electrophoresis assay of pUC19 supercoiled DNA relaxation by hTop I; type: biochemical; settings: pUC19 plasmid DNA with hTop I, agarose gel, CPT 2-8 μM, FIG. 4 lanes 3-6
T1 construct: made in house
T1 sequence (P11387 1-765): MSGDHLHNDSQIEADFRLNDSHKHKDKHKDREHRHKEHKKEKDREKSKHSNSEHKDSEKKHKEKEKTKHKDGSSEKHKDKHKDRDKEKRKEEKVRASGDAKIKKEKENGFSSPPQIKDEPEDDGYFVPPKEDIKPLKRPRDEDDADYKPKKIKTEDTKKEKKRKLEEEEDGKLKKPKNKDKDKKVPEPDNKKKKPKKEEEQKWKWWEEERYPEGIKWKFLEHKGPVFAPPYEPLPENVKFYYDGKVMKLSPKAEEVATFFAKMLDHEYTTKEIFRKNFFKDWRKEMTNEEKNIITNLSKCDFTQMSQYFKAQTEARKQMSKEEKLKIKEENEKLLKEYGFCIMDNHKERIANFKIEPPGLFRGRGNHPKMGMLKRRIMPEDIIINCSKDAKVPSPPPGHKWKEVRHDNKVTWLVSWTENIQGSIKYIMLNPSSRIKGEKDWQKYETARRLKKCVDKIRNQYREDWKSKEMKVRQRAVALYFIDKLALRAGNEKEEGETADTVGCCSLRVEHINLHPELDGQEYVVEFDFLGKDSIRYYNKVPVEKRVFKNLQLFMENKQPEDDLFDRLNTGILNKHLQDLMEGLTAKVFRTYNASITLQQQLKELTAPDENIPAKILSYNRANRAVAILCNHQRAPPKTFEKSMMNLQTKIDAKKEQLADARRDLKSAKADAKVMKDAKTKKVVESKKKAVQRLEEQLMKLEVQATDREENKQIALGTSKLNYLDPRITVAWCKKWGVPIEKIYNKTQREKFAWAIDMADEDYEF
Text: The pUC19 plasmid DNA is closely circular double-stranded supercoiled DNA. When the pUC19 plasmid DNA is interacted with the Top I, one strand of the circular double-stranded supercoiled DNA is cleaved, separated and religated to form a relaxed form. A gel electrophoresis assay is used to evaluate the conformational change of pUC19 plasmid DNA.

[2] = target: T2, immobilized hTop I (Homo sapiens, UniProt P11387); assay: SPR assay on sensor chip with immobilized hTop I, inhibitor alone without DNA in analytes; type: binding; settings: CPT alone 0-250 nM, no DNA in analytes, FIG. 8
T2 construct: made in house
T2 sequence (P11387 1-765): T1 sequence (P11387 1-765)
Description: (§1) Briefly, the surface of the micro-fluid chip is activated with 0.05-0.5 M N-hydroxysuccinimide and 0.1-0.5 M N-ethyl-N′-(3-dimethylaminopropyl) carbodiimimide at a flow rate of 25 μL/min. The hTop I is diluted in 10 mM sodium acetate and adjusted pH values to pH 3.0-10.0, preferably to pH 5.0-8.5, especially to pH 7.5. The hTop I is immobilized on the micro-fluid chip at 20-40[…] (preferably at 25[…]) using a flow rate of 10-40 μL/min (preferably 25-30 μL/min, specially 25 μL/min) for 60-300 seconds (preferably 200-300 seconds), and therefore the contents of the hTop I are about 20-150 μL. Activated amine groups are quenched with injecting 1 M ethanolamine (pH 7.0-9.0). Recombinant hTop I was covalently coupled to the carboxymethylated dextran surface of the chip using standard amine-coupling chemistry.
[…] […] The interaction causes an increase in the higher the mass of ligands immobilized on the micro-fluid chip, and is reflected in a rise in RUs.

[3] = target: T3, hTopI-DNA cleavage complex (Homo sapiens, UniProt P11387); assay: SPR assay on sensor chip with immobilized hTop I, inhibitor together with pUC19 plasmid DNA in analytes; type: binding
T3 construct: made in house
T3 sequence (P11387 1-765): T1 sequence (P11387 1-765)
Description: as §1
To characterize the drug-binding kinetics using the SPR sensor chip, plasmid DNA (1.0 μg/ml) is included in the analytes. […] The interaction causes an increase in the higher the mass of ligands immobilized on the micro-fluid chip, and is reflected in a rise in RUs.

[4] = pUC19 plasmid DNA 1.0 μg/ml plus CPT, compared to DNA only, ProteOn Manager 2.0 calculation

Row | SMILES | inhibitory effect on hTop I relaxation activity (supercoiled DNA retained) [1] | binding to hTop I (RU values) [2] | RU response (binding) ([3]; pUC19 plasmid DNA 1.0 μg/ml plus CPT 0, 62.5, 125 and 250 nM, FIG. 9) | Ka [3, 4] | Kd [3, 4] | binding to hTop I immobilized on the micro-fluid chip ([3]; VP-16 and pUC19 plasmid DNA loaded simultaneously)
1 | CC[C@@]1(O)C(=O)OCc2c1cc1n(c2=O)Cc2cc3ccccc3nc2-1 [CPT, camptothecin] | inhibited hTop I relaxation activity | does not bind to hTopI without DNA | RU increases in a concentration-dependent manner | 9.11×10^7 | 3.74×10^−21 | –
2 | COc1cc([C@@H]2c3cc4c(cc3[C@@H](O[C@@H]3O[C@@H]5CO[C@@H](C)O[C@H]5[C@H](O)[C@H]3O)[C@H]3COC(=O)[C@H]23)OCO4)cc(OC)c1O [VP-16, etoposide] | – | – | – | – | – | does not bind to the hTop I
